Laboratory results taken from patent US8088761B2, “Enzyme inhibitors” (Cancer Research Technology Limited, priority 2005, dated 2012).

Legend:
HCT116 cells = test: Cell viability assay (MTT) in HCT116 cell line; type: cell-based; settings: Homo sapiens, HCT-116, 72 hrs, IC50 range, read-out: HCT116 cell growth inhibition
Description: Cell Viability Assay: Determination of IC50 of Aurora Inhibitors in HCT116 Cell Line Using MTT Assay. The effects of compounds of the Examples on cellular proliferation were determined using the MTT assay according to manufacturer's instructions (Sigma). Briefly, the human colon tumour cells HCT116, were seeded in triplicate into 96-well plates at 2500 cells/well 24 hours before treatment with a range of concentrations of Aurora inhibitors (0-50 μM). After 72 hrs, 15 μl/well of 0.5% 3-(4,5-dimethylthiazol-2-yl)-2,5-diphenyltetrazolium bromide (MTT) was added to the cells for 4 hrs at 37° C., the dye-stained viable cells were extracted by adding 150 μl/well of dimethyl sulphoxide (DMSO). […] The IC50 was calculated using the Prism software.

Aurora-A = biological target: T1, Aurora-A (Homo sapiens, UniProt O14965); test: Flashplate Aurora A enzyme inhibition assay; type: biochemical; settings: Flashplate assay; IC50 range; read-out: Aurora-A inhibition
T1 sequence (O14965 1-403): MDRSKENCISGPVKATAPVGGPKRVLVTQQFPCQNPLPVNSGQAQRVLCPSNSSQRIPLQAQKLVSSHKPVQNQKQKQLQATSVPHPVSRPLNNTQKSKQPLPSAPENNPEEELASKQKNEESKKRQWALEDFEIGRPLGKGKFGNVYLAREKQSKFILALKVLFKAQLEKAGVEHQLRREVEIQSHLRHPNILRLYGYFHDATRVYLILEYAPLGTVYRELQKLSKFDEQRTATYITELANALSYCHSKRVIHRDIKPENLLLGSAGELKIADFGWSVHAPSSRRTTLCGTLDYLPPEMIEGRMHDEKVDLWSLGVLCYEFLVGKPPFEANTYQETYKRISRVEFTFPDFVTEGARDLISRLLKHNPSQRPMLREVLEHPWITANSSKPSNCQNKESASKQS
Description: Flashplate® Assay for Identification and Evaluation of Aurora-A Inhibitors
On this assay 384-well Basic Flashplate® (SMP400E, PerkinElmer) as solid assay platform was used. The plates were coated overnight at 4° C. with […] at 100 μg/ml in PBS buffer and used after being washed twice with PBS. 5 μl of compound in 2% DMSO was added to each well followed by 15 μl master mix of kinase buffer (50 mM Tris pH 7.5, 10 mM NaCl, 2.5 mM MgCl2, 1 mM […], 20 μM ATP, and 0.025 μCi/μl ^33P-ATP). Finally, 250 ng per well of Aurora-A enzyme was added. The plate was shaken for approximately 2 min on a flat-bed plate shaker (Wellmix, Denley, UK) and incubated for 2 hours at room temperature. The reaction was stopped by washing the plate twice on a 16-pin wash (ELX50 BioTek Instruments Ltd., Northstar, Bedford, UK) with 10 mM sodium pyrophosphate. The plate was then read on a TopCount-NX™ (PerkinElmer Life Sciences UK Ltd., Hounslow, UK).

| IC50 (HCT116 cells) [µM] | IC50 (Aurora-A) [µM] | SMILES |
| --- | --- | --- |
| 2 to 50 | 0.5 to 2 | CC(C)(C)OC(=O)N1CCN(c2ccc(-c3nc4c(N5CCN(Cc6cccnc6)CC5)c(Cl)cnc4[nH]3)cc2)CC1 [Example 136, tert-Butyl 4-(4-(6-chloro-7-(4-(pyridin-3-ylmethyl)piperazin-1-yl)-3H-imidazo[4,5-b]pyridin-2-yl)phenyl)piperazine-1-carboxylate] |
| 0.5 to 2 | < 0.5 | COc1ccc(-c2nc3c(N4CCN(Cc5nccn5C)CC4)c(Br)cnc3[nH]2)cc1 [Example 167, 6-Bromo-2-(4-methoxyphenyl)-7-(4-((1-methyl-1H-imidazol-2-yl)methyl)piperazin-1-yl)-3H-imidazo[4,5-b]pyridine] |
| < 0.5 | < 0.5 | O=C(CN1CCN(c2c(Cl)cnc3[nH]c(-c4ccc(Cn5cccn5)cc4)nc23)CC1)Nc1nccs1 [Example 84, 2-(4-(2-(4-((1H-Pyrazol-1-yl)methyl)phenyl)-6-chloro-3H-imidazo[4,5-b]pyridin-7-yl)piperazin-1-yl)-N-(thiazol-2-yl)acetamide] |
| < 0.5 | < 0.5 | Brc1cnc2[nH]c(-c3ccc(OC4CCNCC4)cc3)nc2c1N1CCN(Cc2cccnc2)CC1 [Example 113, 6-Bromo-2-(4-(piperidin-4-yloxy)phenyl)-7-(4-(pyridin-3-ylmethyl)piperazin-1-yl)-3H-imidazo[4,5-b]pyridine] |
| 0.5 to 2 | < 0.5 | O=C(CN1CCN(c2c(Cl)cnc3[nH]c(-c4ccccc4)nc23)CC1)Nc1nccs1 [Example 4, 2-[4-(6-Chloro-2-phenyl-3H-imidazo[4,5-b]pyridin-7-yl)-piperazin-1-yl]-N-thiazol-2-yl-acetamide] |
| 2 to 50 | < 0.5 | CN(C)c1ccc(-c2nc3c(N4CCN(CC(=O)N(C)c5ccccc5)CC4)c(Cl)cnc3[nH]2)cc1 [Example 3, 2-{4-[6-Chloro-2-(4-dimethylamino-phenyl)-3H-imidazo[4,5-b]pyridin-7-yl]-piperazin-1-yl}-N-methyl-N-phenyl-acetamide] |
| < 0.5 | < 0.5 | CN1CCN(c2ccc(-c3nc4c(N5CCN(Cc6ccc(Cl)cc6)CC5)c(Br)cnc4[nH]3)cc2)CC1 [Example 86, 6-Bromo-7-[4-(4-chloro-benzyl)-piperazin-1-yl]-2-[4-(4-methyl-piperazin-1-yl)-phenyl]-3H-imidazo[4,5-b]pyridine] |
| < 0.5 | < 0.5 | COc1ccc(-c2nc3c(N4CCN(Cc5ccncc5)CC4)c(Br)cnc3[nH]2)cc1 [Example 67, 6-Bromo-2-(4-methoxy-phenyl)-7-(4-pyridin-4-ylmethyl-piperazin-1-yl)-3H-imidazo[4,5-b]pyridine] |
| 0.5 to 2 | < 0.5 | Clc1cnc2[nH]c(-c3ccc(CN4CCNCC4)cc3)nc2c1N1CCN(Cc2cncnc2)CC1 [Example 141, 6-Chloro-2-(4-(piperazin-1-ylmethyl)phenyl)-7-(4-(pyrimidin-5-ylmethyl)piperazin-1-yl)-3H-imidazo[4,5-b]pyridine] |
| < 0.5 | < 0.5 | O=C(CN1CCN(c2c(Cl)cnc3[nH]c(-c4cccc(OCCN5CCOCC5)c4)nc23)CC1)Nc1nccs1 [Example 185, 2-(4-(6-Chloro-2-(3-(2-morpholinoethoxy)phenyl)-3H-imidazo[4,5-b]pyridin-7-yl)piperazin-1-yl)-N-(thiazol-2-yl)acetamide] |
| 0.5 to 2 | < 0.5 | CN(C)Cc1ccc(-c2nc3c(N4CCN(Cc5cccnc5)CC4)c(Br)cnc3[nH]2)cc1 [Example 61, 1-(4-(6-Bromo-7-(4-(pyridin-3-ylmethyl)piperazin-1-yl)-3H-imidazo[4,5-b]pyridin-2-yl)phenyl)-N,N-dimethylmethanamine] |
| 0.5 to 2 | < 0.5 | O=S1(=O)CCN(c2ccc(-c3nc4c(N5CCN(Cc6cccnc6)CC5)c(Br)cnc4[nH]3)cc2)CC1 [Example 115, 4-(4-(6-Bromo-7-(4-(pyridin-3-ylmethyl)piperazin-1-yl)-3H-imidazo[4,5-b]pyridin-2-yl)phenyl)-1,1-dioxothiomorpholine] |
| < 0.5 | < 0.5 | CC(c1ccncc1)N1CCN(c2c(Br)cnc3[nH]c(-c4ccc(OCCN(C)C)cc4)nc23)CC1 (centres unmarked) [Example 131, 2-(4-(6-Bromo-7-(4-(1-(pyridin-4-yl)ethyl)piperazin-1-yl)-3H-imidazo[4,5-b]pyridin-2-yl)phenoxy)-N,N-dimethylethanamine] |
| 0.5 to 2 | < 0.5 | NCc1cccc(-c2nc3c(N4CCN(Cc5cccnc5)CC4)c(Br)cnc3[nH]2)c1 [Example 92, (3-(6-Bromo-7-(4-(pyridin-3-ylmethyl)piperazin-1-yl)-3H-imidazo[4,5-b]pyridin-2-yl)phenyl)methanamine] |
| < 0.5 | < 0.5 | COc1ccc(-c2nc3c(N4CCN(C(C)c5ccncc5)CC4)c(Br)cnc3[nH]2)cc1 (centres unmarked) [Example 54, 6-Bromo-2-(4-methoxyphenyl)-7-(4-(1-(pyridin-4-yl)ethyl)piperazin-1-yl)-3H-imidazo[4,5-b]pyridine] |
| 0.5 to 2 | < 0.5 | Brc1cnc2[nH]c(-c3ccc(CN4CCOCC4)cc3)nc2c1N1CCN(Cc2cncs2)CC1 [Example 171, 4-(4-(6-Bromo-7-(4-(thiazol-5-ylmethyl)piperazin-1-yl)-3H-imidazo[4,5-b]pyridin-2-yl)benzyl)morpholine] |

| SMILES | IC50 (HCT116 cells) [µM] | IC50 (Aurora-A) [µM] |
| --- | --- | --- |
| Cc1nc(CN2CCN(c3c(Cl)cnc4[nH]c(-c5ccc(CN6CCOCC6)cc5)nc34)CC2)cs1 [Example 172, 4-(4-(6-Chloro-7-(4-((2-methylthiazol-4-yl)methyl)piperazin-1-yl)-3H-imidazo[4,5-b]pyridin-2-yl)benzyl)morpholine] | 0.5 to 2 | < 0.5 |
| Cc1cc(NC(=O)CN2CCN(c3c(Cl)cnc4[nH]c(-c5ccc(N(C)C)cc5)nc34)CC2)on1 [Example 63, 2-(4-(6-Chloro-2-(4-(dimethylamino)phenyl)-3H-imidazo[4,5-b]pyridin-7-yl)piperazin-1-yl)-N-(3-methylisoxazol-5-yl)acetamide] | 0.5 to 2 | < 0.5 |
| COc1ccc(-c2nc3c(N4CCN(Cc5ccncc5)CC4)c(Cl)cnc3[nH]2)cc1 [Example 35, 6-Chloro-2-(4-methoxyphenyl)-7-(4-(pyridin-4-ylmethyl)piperazin-1-yl)-3H-imidazo[4,5-b]pyridine] | 0.5 to 2 | < 0.5 |
| CN(C)c1ccc(-c2nc3c(N4CCN(CC(=O)Nc5cccnc5)CC4)c(Br)cnc3[nH]2)cc1 [Example 21, 2-(4-(6-Bromo-2-(4-(dimethylamino)phenyl)-3H-imidazo[4,5-b]pyridin-7-yl)piperazin-1-yl)-N-(pyridin-3-yl)acetamide] | 0.5 to 2 | < 0.5 |
| CN(C)c1ccc(-c2nc3c(N4CCN(C(=O)COc5ccccc5)CC4)c(Br)cnc3[nH]2)cc1 [Example 38, 1-(4-(6-Bromo-2-(4-(dimethylamino)phenyl)-3H-imidazo[4,5-b]pyridin-7-yl)piperazin-1-yl)-2-phenoxyethanone] | 0.5 to 2 | < 0.5 |
| CN(C)c1ccc(-c2nc3c(N4CCN(Cc5ccccn5)CC4)c(Br)cnc3[nH]2)cc1 [Example 30, 4-(6-Bromo-7-(4-(pyridin-2-ylmethyl)piperazin-1-yl)-3H-imidazo[4,5-b]pyridin-2-yl)-N,N-dimethylaniline] | 2 to 50 | < 0.5 |
| COc1ccc(-c2nc3c(N4CCN(Cc5cncnc5)CC4)c(Cl)cnc3[nH]2)cc1 [Example 139, 6-Chloro-2-(4-methoxyphenyl)-7-(4-(pyrimidin-5-ylmethyl)piperazin-1-yl)-3H-imidazo[4,5-b]pyridine] | 0.5 to 2 | < 0.5 |
| COc1ccc(-c2nc3c(N4CCN(Cc5c(C)noc5C)CC4)c(Br)cnc3[nH]2)cc1 [Example 127, 4-((4-(6-Bromo-2-(4-methoxyphenyl)-3H-imidazo[4,5-b]pyridin-7-yl)piperazin-1-yl)methyl)-3,5-dimethylisoxazole] | 0.5 to 2 | < 0.5 |
| COc1ccc(-c2nc3c(N4CCN(Cc5csc(C)n5)CC4)c(Br)cnc3[nH]2)cc1 [Example 144, 4-((4-(6-Bromo-2-(4-methoxyphenyl)-3H-imidazo[4,5-b]pyridin-7-yl)piperazin-1-yl)methyl)-2-methylthiazole] | < 0.5 | < 0.5 |
